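96-well plates; 48 h exposure; 5 concentrations. Endpoints by linear interpolation between flanking doses. Not reached: highest tested concentration assigned. Here, GI50 denotes the concentration required for 50% inhibition of growth. TGI: total growth inhibition.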
Legend:
Assay in all cases: NCI anticancer screen, dose series, 48 h
COLO 205 colon = system: COLO 205 colon
TK-10 renal = system: TK-10 renal
PC-3 prostate = system: PC-3 prostate
MCF7 breast = system: MCF7 breast
KM12 colon = system: KM12 colon
MOLT-4 leukemia = system: MOLT-4 leukemia
SNB-75 CNS = system: SNB-75 CNS
SR leukemia = system: SR leukemia
MALME-3M melanoma = system: MALME-3M melanoma
NCI-H226 lung = system: NCI-H226 lung
HL-60(TB) leukemia = system: HL-60(TB) leukemia
SK-MEL-5 melanoma = system: SK-MEL-5 melanoma
SK-OV-3 ovarian = system: SK-OV-3 ovarian
NCI-H460 lung = system: NCI-H460 lung
A498 renal = system: A498 renal
HCT-15 colon = system: HCT-15 colon
DU-145 prostate = system: DU-145 prostate
A549 NSCLC = system: A549 NSCLC
RXF 393 renal = system: RXF 393 renal
SF-268 CNS = system: SF-268 CNS
U251 CNS = system: U251 CNS
IGROV1 ovarian = system: IGROV1 ovarian
SK-MEL-28 melanoma = system: SK-MEL-28 melanoma
SK-MEL-2 melanoma = system: SK-MEL-2 melanoma
K-562 leukemia = system: K-562 leukemia
HS 578T breast = system: HS 578T breast
HT29 colon = system: HT29 colon
HOP-62 NSCLC = system: HOP-62 NSCLC
786-0 renal = system: 786-0 renal
LOX IMVI melanoma = system: LOX IMVI melanoma
MDA-MB-231 breast = system: MDA-MB-231 breast
SF-295 CNS = system: SF-295 CNS
SW-620 colon = system: SW-620 colon
CAKI-1 renal = system: CAKI-1 renal
UACC-62 melanoma = system: UACC-62 melanoma
HCC-2998 colon = system: HCC-2998 colon
NCI-H522 lung = system: NCI-H522 lung
SNB-19 CNS = system: SNB-19 CNS
NCI-H23 lung = system: NCI-H23 lung
OVCAR-5 ovarian = system: OVCAR-5 ovarian
CCRF-CEM leukemia = system: CCRF-CEM leukemia
UO-31 renal = system: UO-31 renal
BT-549 breast = system: BT-549 breast
SN12C renal = system: SN12C renal
M14 melanoma = system: M14 melanoma
HOP-92 NSCLC = system: HOP-92 NSCLC
SF-539 CNS = system: SF-539 CNS
ACHN renal = system: ACHN renal
RPMI-8226 leukemia = system: RPMI-8226 leukemia
OVCAR-8 ovarian = system: OVCAR-8 ovarian
HCT-116 colon = system: HCT-116 colon
UACC-257 melanoma = system: UACC-257 melanoma
EKVX NSCLC = system: EKVX NSCLC
OVCAR-4 ovarian = system: OVCAR-4 ovarian

SMILES: CCOC(=O)c1ccc(NC(=O)Nc2nccs2)cc1
- GI50 (COLO 205 colon): 33.6 nM
- TGI (COLO 205 colon): 117 nM
- GI50 (TK-10 renal): 38.1 nM
- TGI (TK-10 renal): 669 nM
- GI50 (PC-3 prostate): 443 nM
- TGI (PC-3 prostate): 39800 nM
- GI50 (MCF7 breast): 30.9 nM
- TGI (MCF7 breast): 13900 nM
- GI50 (KM12 colon): 110 nM
- TGI (KM12 colon): 1010 nM
- GI50 (MOLT-4 leukemia): 379 nM
- TGI (MOLT-4 leukemia): 31300 nM
- GI50 (SNB-75 CNS): 1550 nM
- TGI (SNB-75 CNS): > 48900 nM
- GI50 (SR leukemia): 30.2 nM
- GI50 (MALME-3M melanoma): 1240 nM
- TGI (MALME-3M melanoma): 31500 nM
- GI50 (NCI-H226 lung): 363 nM
- GI50 (HL-60(TB) leukemia): 459 nM
- TGI (HL-60(TB) leukemia): 7760 nM
- GI50 (SK-MEL-5 melanoma): 28.5 nM
- TGI (SK-MEL-5 melanoma): 211 nM
- GI50 (SK-OV-3 ovarian): 44.5 nM
- TGI (SK-OV-3 ovarian): 9760 nM
- GI50 (NCI-H460 lung): 37.5 nM
- TGI (NCI-H460 lung): 2060 nM
- GI50 (A498 renal): 79.5 nM
- TGI (A498 renal): 568 nM
- GI50 (HCT-15 colon): 36.4 nM
- TGI (HCT-15 colon): > 45500 nM
- GI50 (DU-145 prostate): 107 nM
- TGI (DU-145 prostate): 690 nM
- GI50 (A549 NSCLC): 72.5 nM
- GI50 (RXF 393 renal): 43.4 nM
- TGI (RXF 393 renal): > 100000 nM
- GI50 (SF-268 CNS): 201 nM
- TGI (SF-268 CNS): 16900 nM
- GI50 (U251 CNS): 47.8 nM
- TGI (U251 CNS): 25100 nM
- GI50 (IGROV1 ovarian): 64 nM
- TGI (IGROV1 ovarian): 24000 nM
- GI50 (SK-MEL-28 melanoma): 71.2 nM
- TGI (SK-MEL-28 melanoma): 25800 nM
- GI50 (SK-MEL-2 melanoma): 819 nM
- TGI (SK-MEL-2 melanoma): 46800 nM
- GI50 (K-562 leukemia): 31.4 nM
- TGI (K-562 leukemia): 30100 nM
- GI50 (HS 578T breast): 33 nM
- TGI (HS 578T breast): 33200 nM
- GI50 (HT29 colon): 33.6 nM
- GI50 (HOP-62 NSCLC): 2510 nM
- TGI (HOP-62 NSCLC): > 45100 nM
- GI50 (786-0 renal): 716 nM
- TGI (786-0 renal): > 46400 nM
- GI50 (LOX IMVI melanoma): 98.7 nM
- TGI (LOX IMVI melanoma): 50100 nM
- GI50 (MDA-MB-231 breast): 275 nM
- TGI (MDA-MB-231 breast): 2980 nM
- GI50 (SF-295 CNS): 627 nM
- TGI (SF-295 CNS): 15500 nM
- GI50 (SW-620 colon): 28.3 nM
- TGI (SW-620 colon): 35600 nM
- GI50 (CAKI-1 renal): 398 nM
- TGI (CAKI-1 renal): 44800 nM
- GI50 (UACC-62 melanoma): 44 nM
- TGI (UACC-62 melanoma): 20400 nM
- GI50 (HCC-2998 colon): 204 nM
- TGI (HCC-2998 colon): 4450 nM
- GI50 (NCI-H522 lung): 72.4 nM
- TGI (NCI-H522 lung): 688 nM
- GI50 (SNB-19 CNS): 128 nM
- TGI (SNB-19 CNS): 42800 nM
- GI50 (NCI-H23 lung): 66.8 nM
- TGI (NCI-H23 lung): 36600 nM
- GI50 (OVCAR-5 ovarian): 1100 nM
- TGI (OVCAR-5 ovarian): > 100000 nM
- GI50 (CCRF-CEM leukemia): 448 nM
- TGI (CCRF-CEM leukemia): > 100000 nM
- GI50 (UO-31 renal): 490 nM
- TGI (UO-31 renal): 57800 nM
- GI50 (BT-549 breast): 328 nM
- TGI (BT-549 breast): 2540 nM
- GI50 (SN12C renal): 371 nM
- TGI (SN12C renal): 27100 nM
- GI50 (M14 melanoma): 34.6 nM
- TGI (M14 melanoma): > 100000 nM
- GI50 (HOP-92 NSCLC): 5250 nM
- TGI (HOP-92 NSCLC): 40400 nM
- GI50 (SF-539 CNS): 106 nM
- TGI (SF-539 CNS): 385 nM
- GI50 (ACHN renal): 297 nM
- TGI (ACHN renal): > 100000 nM
- GI50 (RPMI-8226 leukemia): 698 nM
- TGI (RPMI-8226 leukemia): > 39500 nM
- GI50 (OVCAR-8 ovarian): 53.2 nM
- TGI (OVCAR-8 ovarian): 3170 nM
- GI50 (HCT-116 colon): 60.5 nM
- GI50 (UACC-257 melanoma): 11100 nM
- TGI (UACC-257 melanoma): 24100 nM
- GI50 (EKVX NSCLC): 162 nM
- TGI (EKVX NSCLC): > 96600 nM
- GI50 (OVCAR-4 ovarian): 63.1 nM
- TGI (OVCAR-4 ovarian): > 66300 nM

Source: PubChem BioAssay (NCI)
